Data as given in article PMC7316778 (Nature Communications, 2020).
“And” between values parts separate entries of the source, which are not always exact repeats. Equal entries are not always repeated. Where two headings read alike, the source gives them in different places.

Columns and labels:
Assay in all cases: SelectScreen kinase assay
[1] = target: PAK7 (KIAA1264) (Homo sapiens, UniProt Q9P286)
Procedure: (§1) Selectivity profiling assays were performed by the Invitrogen SelectScreen™ Services. […] The concentration of ATP was selected to be equal to the KM, unless indicated otherwise.

[2] = target: T1, MYLK4 (Homo sapiens, UniProt Q86YV6)
T1 sequence (Q86YV6 1-388): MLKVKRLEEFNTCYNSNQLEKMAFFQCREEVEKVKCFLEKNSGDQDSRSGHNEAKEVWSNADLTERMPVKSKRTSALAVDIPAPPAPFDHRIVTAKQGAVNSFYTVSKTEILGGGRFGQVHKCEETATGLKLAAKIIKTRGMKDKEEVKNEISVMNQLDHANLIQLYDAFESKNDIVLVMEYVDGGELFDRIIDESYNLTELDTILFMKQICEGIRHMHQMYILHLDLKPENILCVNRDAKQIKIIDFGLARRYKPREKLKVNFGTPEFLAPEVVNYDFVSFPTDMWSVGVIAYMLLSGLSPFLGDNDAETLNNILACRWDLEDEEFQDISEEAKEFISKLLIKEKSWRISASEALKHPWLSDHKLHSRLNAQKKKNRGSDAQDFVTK
Procedure: as §1

[3] = target: FER (Homo sapiens, UniProt P16591)
FER, sequence (P16591 whole entry): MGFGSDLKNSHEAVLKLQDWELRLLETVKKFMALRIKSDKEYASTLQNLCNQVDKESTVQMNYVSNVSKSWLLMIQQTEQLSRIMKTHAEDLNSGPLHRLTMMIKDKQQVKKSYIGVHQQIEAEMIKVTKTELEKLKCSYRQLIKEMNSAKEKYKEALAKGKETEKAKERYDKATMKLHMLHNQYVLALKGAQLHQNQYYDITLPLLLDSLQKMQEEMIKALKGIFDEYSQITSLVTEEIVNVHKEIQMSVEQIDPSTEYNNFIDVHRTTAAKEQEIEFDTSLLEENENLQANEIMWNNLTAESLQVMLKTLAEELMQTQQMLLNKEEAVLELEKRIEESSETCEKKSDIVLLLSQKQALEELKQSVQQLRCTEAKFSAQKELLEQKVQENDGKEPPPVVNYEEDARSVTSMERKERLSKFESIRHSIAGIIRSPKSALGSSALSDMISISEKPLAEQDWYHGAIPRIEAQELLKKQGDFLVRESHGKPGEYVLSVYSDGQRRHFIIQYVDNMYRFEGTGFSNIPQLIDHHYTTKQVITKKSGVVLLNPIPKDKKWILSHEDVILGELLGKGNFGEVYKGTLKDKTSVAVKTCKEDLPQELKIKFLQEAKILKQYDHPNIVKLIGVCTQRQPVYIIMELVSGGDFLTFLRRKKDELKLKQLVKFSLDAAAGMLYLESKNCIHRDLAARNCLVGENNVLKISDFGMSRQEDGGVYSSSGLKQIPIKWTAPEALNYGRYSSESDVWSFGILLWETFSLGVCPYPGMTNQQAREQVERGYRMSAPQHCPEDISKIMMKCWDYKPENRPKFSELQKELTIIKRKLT
Procedure: as §1

[4] = target: T2, NUAK2 (Homo sapiens, UniProt Q9H093)
T2 sequence (Q9H093 1-628): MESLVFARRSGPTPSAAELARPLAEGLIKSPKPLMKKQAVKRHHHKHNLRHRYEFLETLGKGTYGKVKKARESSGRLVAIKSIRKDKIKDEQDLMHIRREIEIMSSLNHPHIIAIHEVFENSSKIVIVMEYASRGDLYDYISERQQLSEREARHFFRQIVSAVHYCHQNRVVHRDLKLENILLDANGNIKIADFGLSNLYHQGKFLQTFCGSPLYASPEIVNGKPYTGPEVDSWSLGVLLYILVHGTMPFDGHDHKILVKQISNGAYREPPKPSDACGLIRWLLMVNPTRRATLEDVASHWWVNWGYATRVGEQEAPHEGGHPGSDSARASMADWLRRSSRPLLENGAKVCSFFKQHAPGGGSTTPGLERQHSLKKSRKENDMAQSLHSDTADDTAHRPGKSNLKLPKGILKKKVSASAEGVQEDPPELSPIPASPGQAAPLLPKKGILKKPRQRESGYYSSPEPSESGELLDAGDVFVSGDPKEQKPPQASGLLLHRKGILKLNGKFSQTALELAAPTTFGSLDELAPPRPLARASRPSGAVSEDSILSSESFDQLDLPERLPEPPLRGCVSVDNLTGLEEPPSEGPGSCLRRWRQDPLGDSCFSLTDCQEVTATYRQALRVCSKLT
Procedure: as §1

[5] = target: CSNK2A2 (CK2 alpha 2) (Homo sapiens, UniProt P19784)
CSNK2A2 (CK2 alpha 2), sequence (P19784 whole entry): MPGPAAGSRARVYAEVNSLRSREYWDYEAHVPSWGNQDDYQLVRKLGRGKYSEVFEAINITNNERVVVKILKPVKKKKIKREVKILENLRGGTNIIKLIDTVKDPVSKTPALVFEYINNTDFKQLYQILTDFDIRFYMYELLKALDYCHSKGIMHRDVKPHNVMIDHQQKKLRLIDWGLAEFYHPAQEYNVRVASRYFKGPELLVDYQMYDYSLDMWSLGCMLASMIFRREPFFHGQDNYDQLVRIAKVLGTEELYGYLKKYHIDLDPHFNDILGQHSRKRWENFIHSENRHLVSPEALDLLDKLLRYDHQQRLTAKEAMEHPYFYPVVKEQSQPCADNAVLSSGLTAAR
Procedure: as §1

[6] = target: PIK3CA/PIK3R3 (p110 alpha/p55 gamma) (Homo sapiens, UniProt P42336); details: for Inhibition at 1 µM (%): PIK3CA/PIK3R3 (p110 alpha/p55 gamma), Adapta, ATP 10
PIK3CA/PIK3R3 (p110 alpha/p55 gamma), sequence (P42336 whole entry): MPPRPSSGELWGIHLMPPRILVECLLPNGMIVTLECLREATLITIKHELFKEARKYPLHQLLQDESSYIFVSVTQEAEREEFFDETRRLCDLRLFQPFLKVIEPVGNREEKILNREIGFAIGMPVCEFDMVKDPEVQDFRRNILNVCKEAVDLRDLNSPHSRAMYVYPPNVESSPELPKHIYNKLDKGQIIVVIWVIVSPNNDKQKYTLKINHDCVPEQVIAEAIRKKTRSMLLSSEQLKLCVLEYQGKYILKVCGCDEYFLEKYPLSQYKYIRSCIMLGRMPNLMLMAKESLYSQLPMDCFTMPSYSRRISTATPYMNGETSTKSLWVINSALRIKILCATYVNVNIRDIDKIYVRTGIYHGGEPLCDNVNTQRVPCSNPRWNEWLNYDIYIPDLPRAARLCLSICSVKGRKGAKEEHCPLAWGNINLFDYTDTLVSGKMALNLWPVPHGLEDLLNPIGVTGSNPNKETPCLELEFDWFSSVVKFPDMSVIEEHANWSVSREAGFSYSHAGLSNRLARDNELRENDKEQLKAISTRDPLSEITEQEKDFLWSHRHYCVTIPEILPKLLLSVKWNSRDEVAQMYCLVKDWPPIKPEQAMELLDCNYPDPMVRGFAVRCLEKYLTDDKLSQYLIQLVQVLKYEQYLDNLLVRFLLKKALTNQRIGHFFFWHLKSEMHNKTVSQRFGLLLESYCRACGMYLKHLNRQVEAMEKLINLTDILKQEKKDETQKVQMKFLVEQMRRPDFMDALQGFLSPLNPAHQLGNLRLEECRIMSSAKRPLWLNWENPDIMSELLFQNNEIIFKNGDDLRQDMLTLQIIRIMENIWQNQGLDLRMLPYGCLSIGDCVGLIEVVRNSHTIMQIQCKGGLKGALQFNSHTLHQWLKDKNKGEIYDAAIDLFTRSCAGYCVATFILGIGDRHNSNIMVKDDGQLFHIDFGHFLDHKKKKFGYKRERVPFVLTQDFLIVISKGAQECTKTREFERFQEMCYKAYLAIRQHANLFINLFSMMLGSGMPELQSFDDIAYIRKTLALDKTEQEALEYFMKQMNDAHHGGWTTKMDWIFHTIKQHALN
Procedure: as §1

[7] = target: ERN1 (Homo sapiens, UniProt O75460); details: for Inhibition at 1 µM (%): ERN1, LanthaScreen Binding
ERN1, sequence (O75460 19-977): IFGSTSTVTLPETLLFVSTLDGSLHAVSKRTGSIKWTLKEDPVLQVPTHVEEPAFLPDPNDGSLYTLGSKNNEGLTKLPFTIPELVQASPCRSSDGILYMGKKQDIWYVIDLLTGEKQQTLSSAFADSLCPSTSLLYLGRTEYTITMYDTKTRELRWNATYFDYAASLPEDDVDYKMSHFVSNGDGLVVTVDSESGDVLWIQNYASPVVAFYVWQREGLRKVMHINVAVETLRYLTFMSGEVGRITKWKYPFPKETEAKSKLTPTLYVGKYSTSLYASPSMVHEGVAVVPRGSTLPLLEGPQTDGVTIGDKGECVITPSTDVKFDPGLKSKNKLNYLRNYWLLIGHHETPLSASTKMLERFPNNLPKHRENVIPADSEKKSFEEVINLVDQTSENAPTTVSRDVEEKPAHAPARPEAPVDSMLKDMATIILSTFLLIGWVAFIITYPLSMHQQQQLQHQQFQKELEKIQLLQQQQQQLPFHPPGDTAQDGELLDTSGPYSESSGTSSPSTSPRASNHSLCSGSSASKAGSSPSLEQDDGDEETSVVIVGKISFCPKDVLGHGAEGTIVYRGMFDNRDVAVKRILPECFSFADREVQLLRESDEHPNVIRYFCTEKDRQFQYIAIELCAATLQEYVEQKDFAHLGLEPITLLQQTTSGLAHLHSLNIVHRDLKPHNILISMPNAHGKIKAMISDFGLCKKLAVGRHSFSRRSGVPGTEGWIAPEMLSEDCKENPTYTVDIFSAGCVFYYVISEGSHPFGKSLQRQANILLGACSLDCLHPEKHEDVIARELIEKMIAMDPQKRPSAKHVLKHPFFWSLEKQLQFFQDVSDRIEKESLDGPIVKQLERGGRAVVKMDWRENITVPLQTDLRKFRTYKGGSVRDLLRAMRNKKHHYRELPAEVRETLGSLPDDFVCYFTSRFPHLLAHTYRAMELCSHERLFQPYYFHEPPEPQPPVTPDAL
Procedure: as §1

[8] = target: AMPK A2/B1/G1 (Homo sapiens, UniProt P54646)
Procedure: as §1

[9] = target: PIM3 (Homo sapiens, UniProt Q86V86)
Procedure: as §1

[10] = target: T3, KSR2 (Homo sapiens, UniProt Q6VAB6); details: for Inhibition at 1 µM (%): KSR2, ZLYTE, ATP Km app
T3 sequence (Q6VAB6 1-950): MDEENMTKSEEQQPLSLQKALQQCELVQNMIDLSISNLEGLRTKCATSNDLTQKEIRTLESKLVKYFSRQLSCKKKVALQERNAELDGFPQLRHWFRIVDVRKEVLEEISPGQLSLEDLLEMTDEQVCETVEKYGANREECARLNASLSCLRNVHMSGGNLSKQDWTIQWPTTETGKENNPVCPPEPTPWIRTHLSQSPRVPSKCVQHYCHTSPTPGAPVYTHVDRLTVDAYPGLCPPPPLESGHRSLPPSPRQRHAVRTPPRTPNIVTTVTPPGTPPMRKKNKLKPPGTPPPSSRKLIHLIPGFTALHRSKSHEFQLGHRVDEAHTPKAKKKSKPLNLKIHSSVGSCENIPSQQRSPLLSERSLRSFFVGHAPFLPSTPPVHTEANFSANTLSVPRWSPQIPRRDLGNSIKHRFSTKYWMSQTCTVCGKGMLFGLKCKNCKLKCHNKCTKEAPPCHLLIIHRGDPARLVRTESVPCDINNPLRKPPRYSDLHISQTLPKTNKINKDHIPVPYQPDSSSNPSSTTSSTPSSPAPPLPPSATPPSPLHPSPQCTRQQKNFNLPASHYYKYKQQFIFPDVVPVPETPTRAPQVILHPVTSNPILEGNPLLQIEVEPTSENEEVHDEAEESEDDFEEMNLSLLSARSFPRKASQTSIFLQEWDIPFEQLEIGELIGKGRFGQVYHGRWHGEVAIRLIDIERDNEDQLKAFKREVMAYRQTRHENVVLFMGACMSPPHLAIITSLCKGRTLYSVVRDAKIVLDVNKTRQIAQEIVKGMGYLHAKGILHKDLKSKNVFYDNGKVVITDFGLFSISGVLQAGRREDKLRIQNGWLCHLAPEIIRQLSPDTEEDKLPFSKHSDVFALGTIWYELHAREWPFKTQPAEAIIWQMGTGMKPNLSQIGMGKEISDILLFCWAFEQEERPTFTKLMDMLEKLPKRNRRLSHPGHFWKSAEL
Procedure: as §1

[11] = target: CDK14 (PFTK1)/cyclin Y (Homo sapiens, UniProt O94921)
Procedure: as §1

[12] = 1 h, 1 μM WEL028, 1 h preincubation

PAK7 (KIAA1264), sequence (Q9P286 whole entry): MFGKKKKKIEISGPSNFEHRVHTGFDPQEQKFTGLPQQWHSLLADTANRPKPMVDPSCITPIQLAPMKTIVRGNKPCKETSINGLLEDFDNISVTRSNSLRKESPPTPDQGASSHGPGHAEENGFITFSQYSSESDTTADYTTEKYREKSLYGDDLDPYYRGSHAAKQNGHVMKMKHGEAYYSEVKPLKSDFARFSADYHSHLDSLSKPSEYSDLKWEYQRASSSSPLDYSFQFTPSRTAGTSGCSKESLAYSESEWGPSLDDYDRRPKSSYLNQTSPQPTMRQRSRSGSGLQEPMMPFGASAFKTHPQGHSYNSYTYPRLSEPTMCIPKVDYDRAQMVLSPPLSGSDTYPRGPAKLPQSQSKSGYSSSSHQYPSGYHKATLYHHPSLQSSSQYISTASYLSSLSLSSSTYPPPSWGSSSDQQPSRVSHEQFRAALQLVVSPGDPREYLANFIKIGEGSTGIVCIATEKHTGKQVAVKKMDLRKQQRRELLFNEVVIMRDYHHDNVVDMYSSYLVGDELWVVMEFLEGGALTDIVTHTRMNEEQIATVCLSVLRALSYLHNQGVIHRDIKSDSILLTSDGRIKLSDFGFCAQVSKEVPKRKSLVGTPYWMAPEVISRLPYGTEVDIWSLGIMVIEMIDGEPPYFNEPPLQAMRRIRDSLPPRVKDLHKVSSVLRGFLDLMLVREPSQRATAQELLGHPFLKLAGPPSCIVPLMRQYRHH

C#CCOc1ccc(Nc2ncc(Cl)c(Nc3ccccc3NC(=O)C=C)n2)c(OC)c1 [Compound 6]
inhibition at 1 µM [1, 12]: 12%
Inhibition at 1 µM (%) ([1]; PAK7 (KIAA1264), 1 µM, ZLYTE, ATP Km app, listed as WEL028, 1 µM): 15%
inhibition at 1 µM ([1]; read-out: Inhibition at 1 µM (%), PAK7 (KIAA1264), 1 µM, ZLYTE, ATP Km app): 10%
inhibition at 1 µM [2, 12]: 10%
Inhibition at 1 µM (%) ([2]; MYLK4, 1 µM, LanthaScreen Binding, listed as WEL028, 1 µM): 14%
inhibition at 1 µM ([2]; read-out: Inhibition at 1 µM (%), MYLK4, 1 µM, LanthaScreen Binding): 7%
inhibition at 1 µM [3, 12]: 23%
Inhibition at 1 µM (%) ([3]; FER, 1 µM, ZLYTE, ATP Km app, listed as WEL028, 1 µM): 27%
inhibition at 1 µM ([3]; read-out: Inhibition at 1 µM (%), FER, 1 µM, ZLYTE, ATP Km app): 20%
Inhibition (%) ([4]; 1 μM WEL028, 1 h preincubation): 24%
Inhibition at 1 µM (%) ([4]; NUAK2, 1 µM, LanthaScreen Binding, listed as WEL028, 1 µM): 30%
inhibition at 1 µM ([4]; read-out: Inhibition at 1 µM (%), NUAK2, 1 µM, LanthaScreen Binding): 18%
inhibition at 1 µM ([5]; 1 h): 6%
inhibition at 1 µM ([5]; read-out: Inhibition at 1 µM (%)): 6%
inhibition at 1 µM [6, 12]: 1%
Inhibition at 1 µM (%) [6]: 2%
Inhibition at 1 µM (%) ([6]; listed as WEL028, 1 µM): -1%
inhibition at 1 µM [7, 12]: 8%
Inhibition at 1 µM (%) [7]: 13%
Inhibition at 1 µM (%) ([7]; listed as WEL028, 1 µM): 4%
inhibition at 1 µM [8, 12]: 4%
Inhibition at 1 µM (%) ([8]; AMPK A2/B1/G1, 1 µM, ZLYTE, ATP Km app): -2%
inhibition at 1 µM [9, 12]: 0%
Inhibition at 1 µM (%) ([9]; PIM3, 1 µM, ZLYTE, ATP Km app, listed as WEL028, 1 µM): -1% and 1%
inhibition at 1 µM [10, 12]: 1%
Inhibition at 1 µM (%) [10]: 2%
Inhibition at 1 µM (%) ([10]; listed as WEL028, 1 µM): 0%
Inhibition (%) ([11]; 1 μM WEL028, 1 h preincubation): -7%
Inhibition at 1 µM (%) ([11]; CDK14 (PFTK1)/cyclin Y, 1 µM, LanthaScreen Binding): -14%
